Measured values published in patent US20230295130A1, “COMPOUND USEFUL AS CDK7 KINASE INHIBITOR AND USE THEREOF” (TYK MEDICINES, INC., priority 2020, published 2023).

Tests used:
[1] = system: breast cancer cells MDA-MB 231; assay: Cell anti-proliferation experiment, MTT (Table 2); assay type: cell-based; conditions: Homo sapiens, MDA-MB-231, 72 h, incubate 3 days
Text: (§1) Human breast cancer cells MDA-MB 231, MDA-MB453, ovarian cancer cells OVCAR3 and A2780, colorectal cancer cells HCT-116 and WiDr, and lung cancer cell Calu-6 were purchased from BNCC. DMEM medium (Bio-Channel), DMSO (dimethyl sulfoxide), MTT (thiazole blue), 0.25% EDTA-Tripsin (pancreatin digestive juice), 1×PBS (phosphate buffer, PH7.2), 96-well plate (Corning), fetal bovine serum (FBS), 10,000 U/mL penicillin-G/streptomycin, high-speed freezing centrifuge (EPPENDORF 5810R), enzyme-linked immunosorbent assay (Tecan Spark).
(§2) 1. Cell Plating • A) Tumor cells were cultured to 80-90% density in DMEM (high sugar, containing 10% FBS and 100 U/mL penicillin-G/streptomycin) at 37° C., 5% CO2 and saturated humidity. • B) The culture medium was removed from the 10 cm culture dish. • C) Cells were washed with 10 ml 1×PBS. • D) 4 ml of 0.25% EDTA-Tripsin was added to an incubator to digest pancreatin for 5 minutes at 37° C. and 5% CO2, transferred to a 15 ml centrifuge tube, centrifuged for 5 minutes at 200 g, and supernatant was discarded to obtain cell precipitation. • E) The cell precipitation was resuspended with 4 ml DMEM medium, counted and adjusted to 50,000 cells/ml. • F) Cell suspension was added to a 96-well plate with a volume of 100 μL per well and cultured overnight in a 5% CO2 incubator at 37° C.
(§3) Compound Dilution • A) Preparing the tested compound gradient dilution solution: the tested compounds were prepared into 10 mM and 1 mM storage solution respectively. Firstly, 1 μl and 0.5 μl of 10 mM storage solution were dissolved in 1 ml of DMSO-free culture solution, respectively, to obtain diluted compounds with concentrations of 10 and 5 μM. Then, 1.5 μl of 1 mM storage solution was dissolved in 1.5 ml of DMSO-free culture solution to obtain a dilution compound with a concentration of 1 μM, and then diluted with a 3-fold continuous gradient with […] culture solution for a total of 7 concentrations. The concentrations of all 10 diluted compounds mentioned above were as follows: • 10 μM, 5 μM, 1 μM, 333.33 nM, 111.11 nM, 37.03 nM, 12.35 nM, 4.15 nM, 1.37 nM, 0.46 nM • B) After full mixing, 100 μL of culture compound solution was taken to replace the culture solution in the cell culture plate, with 4 duplicated wells at each concentration; • C) The cells were transferred to incubator to incubate for 3 days.
(§4) 3. MTT Detection • A) The cell culture plate was taken out and added with 5 mg/ml MTT 10 μL in the biosafety cabinet; • B) The cell culture plate was put back into the incubator and continued to incubate for 3 hours; • C) The cell culture plate was taken out to remove the culture solution, 100 μL isopropanol (containing 0.4 mM HCl, 0.1% NP-40) was added, shaking at room temperature for 30 minutes; • D) The absorbance value was measured at 570 nm on TECAN enzyme linked immunosorbent assay.

[2] = system: breast cancer cells MDA-MB453; assay: Cell anti-proliferation experiment, MTT (Table 2); assay type: cell-based; conditions: Homo sapiens, MDA-MB-453, 72 h, incubate 3 days
Text: as §1, §2, §3, §4

[3] = system: colorectal cancer cells HCT-116; assay: Cell anti-proliferation experiment, MTT (Table 2); assay type: cell-based; conditions: Homo sapiens, HCT-116, 72 h, incubate 3 days
Text: as §1, §2, §3, §4

lung cancer cell Calu-6 = assay: Cell anti-proliferation experiment, MTT (Table 2); assay type: cell-based; conditions: Homo sapiens, Calu-6, 72 h, incubate 3 days
Text: as §1, §2, §3, §4

[4] = system: ovarian cancer cells OVCAR3; assay: Cell anti-proliferation experiment, MTT (Table 2); assay type: cell-based; conditions: Homo sapiens, OVCAR-3, 72 h, incubate 3 days
Text: as §1, §2, §3, §4

[5] = system: colorectal cancer cells WiDr; assay: Cell anti-proliferation experiment, MTT (Table 2); assay type: cell-based, human; conditions: incubate 3 days
Text: as §1, §2, §3, §4

[6] = system: ovarian cancer cells A2780; assay: Cell anti-proliferation experiment, MTT (Table 2); assay type: cell-based, human; conditions: incubate 3 days
Text: as §1, §2, §3, §4

[7] = target: T1, CDK7/Cyclin H/MAT1 kinase (Homo sapiens (Human), UniProt P50613); assay: Enzyme activity test, mobility shift assay (Table 3); assay type: biochemical; conditions: 2 mM ATP, pre-incubated 0 and 60 minutes
T1 sequence (P50613 whole entry): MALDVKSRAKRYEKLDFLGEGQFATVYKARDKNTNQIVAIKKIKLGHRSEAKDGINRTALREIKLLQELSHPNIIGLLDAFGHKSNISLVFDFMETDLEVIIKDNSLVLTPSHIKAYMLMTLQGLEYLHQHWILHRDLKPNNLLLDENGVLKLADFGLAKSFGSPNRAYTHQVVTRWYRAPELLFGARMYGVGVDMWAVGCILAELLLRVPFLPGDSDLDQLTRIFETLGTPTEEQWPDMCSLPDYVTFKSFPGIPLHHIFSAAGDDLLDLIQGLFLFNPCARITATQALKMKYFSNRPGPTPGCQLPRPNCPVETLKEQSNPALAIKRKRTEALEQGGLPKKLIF
T1 sequence (P51946 whole entry partner): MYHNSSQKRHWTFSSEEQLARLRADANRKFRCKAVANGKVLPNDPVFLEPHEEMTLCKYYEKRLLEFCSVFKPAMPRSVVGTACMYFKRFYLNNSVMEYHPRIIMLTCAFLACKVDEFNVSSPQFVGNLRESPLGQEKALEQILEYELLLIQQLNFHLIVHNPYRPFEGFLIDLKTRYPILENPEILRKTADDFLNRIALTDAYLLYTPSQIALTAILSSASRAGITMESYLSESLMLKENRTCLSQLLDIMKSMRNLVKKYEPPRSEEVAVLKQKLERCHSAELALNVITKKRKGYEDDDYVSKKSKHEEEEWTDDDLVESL
T1 sequence (P51948 whole entry partner): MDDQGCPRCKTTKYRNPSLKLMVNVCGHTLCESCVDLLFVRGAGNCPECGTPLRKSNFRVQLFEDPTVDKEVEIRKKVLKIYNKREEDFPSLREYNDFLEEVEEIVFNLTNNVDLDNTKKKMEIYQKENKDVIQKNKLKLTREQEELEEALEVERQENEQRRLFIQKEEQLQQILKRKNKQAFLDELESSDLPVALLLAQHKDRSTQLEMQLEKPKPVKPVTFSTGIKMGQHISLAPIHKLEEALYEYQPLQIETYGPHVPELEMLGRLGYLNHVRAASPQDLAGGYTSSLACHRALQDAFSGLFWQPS
Description: IC50 values of the compounds for CDK7 kinase were detected in Wuxi Biortus Biosciences Co. Ltd.
(§5) The compound powder was dissolved in 100% DMSO to prepare a 10 mM storage solution. The storage solution was further diluted to 0.5 mM as the initial concentration, and continuously diluted 3 times to obtain 10 compound solutions with different concentrations. The compound and enzyme were pre-incubated for 0 minutes and 60 minutes, respectively, using duplicate detection.
was used as a positive control, using Mobility shift say method, to detect CDK kinase (such as CDK7, CDK9, CDK12 and CDK2) activity of the compound.

[8] = target: T1, CDK7/Cyclin H/MAT1 kinase; assay: Enzyme activity test, mobility shift assay (Table 1); assay type: biochemical; conditions: 2 mM ATP; pre-incubated 0 and 60 minutes
CDK2/Cyclin El = CDK2/Cyclin El (Homo sapiens (Human), UniProt P24941); assay: as above; assay type: biochemical; conditions: 2 mM ATP; read-out: CDK2 kinase IC50
Description: as §5
(§6) was used as a positive control, and Mobility shift assay method was used to detect CDK kinase (such as CDK7, CDK9, CDK12 and CDK2) activity of the compounds.

CDK9/Cyclin Tl = CDK9/Cyclin Tl (Homo sapiens (Human), UniProt P50750); assay: as above; assay type: biochemical; conditions: 2 mM ATP; read-out: CDK9 kinase IC50
Sequence of CDK9/Cyclin Tl (P50750 whole entry): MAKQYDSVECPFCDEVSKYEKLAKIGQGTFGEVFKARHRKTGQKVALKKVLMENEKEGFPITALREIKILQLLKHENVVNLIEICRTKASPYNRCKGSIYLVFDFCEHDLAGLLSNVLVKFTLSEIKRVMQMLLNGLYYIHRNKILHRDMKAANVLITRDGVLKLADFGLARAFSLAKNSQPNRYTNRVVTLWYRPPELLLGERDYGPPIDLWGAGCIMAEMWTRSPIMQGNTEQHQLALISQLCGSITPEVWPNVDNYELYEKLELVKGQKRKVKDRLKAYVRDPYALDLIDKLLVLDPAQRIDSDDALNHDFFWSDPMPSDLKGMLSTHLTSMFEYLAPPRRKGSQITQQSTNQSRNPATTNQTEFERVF
Sequence of CDK9/Cyclin Tl (O60563 whole entry partner): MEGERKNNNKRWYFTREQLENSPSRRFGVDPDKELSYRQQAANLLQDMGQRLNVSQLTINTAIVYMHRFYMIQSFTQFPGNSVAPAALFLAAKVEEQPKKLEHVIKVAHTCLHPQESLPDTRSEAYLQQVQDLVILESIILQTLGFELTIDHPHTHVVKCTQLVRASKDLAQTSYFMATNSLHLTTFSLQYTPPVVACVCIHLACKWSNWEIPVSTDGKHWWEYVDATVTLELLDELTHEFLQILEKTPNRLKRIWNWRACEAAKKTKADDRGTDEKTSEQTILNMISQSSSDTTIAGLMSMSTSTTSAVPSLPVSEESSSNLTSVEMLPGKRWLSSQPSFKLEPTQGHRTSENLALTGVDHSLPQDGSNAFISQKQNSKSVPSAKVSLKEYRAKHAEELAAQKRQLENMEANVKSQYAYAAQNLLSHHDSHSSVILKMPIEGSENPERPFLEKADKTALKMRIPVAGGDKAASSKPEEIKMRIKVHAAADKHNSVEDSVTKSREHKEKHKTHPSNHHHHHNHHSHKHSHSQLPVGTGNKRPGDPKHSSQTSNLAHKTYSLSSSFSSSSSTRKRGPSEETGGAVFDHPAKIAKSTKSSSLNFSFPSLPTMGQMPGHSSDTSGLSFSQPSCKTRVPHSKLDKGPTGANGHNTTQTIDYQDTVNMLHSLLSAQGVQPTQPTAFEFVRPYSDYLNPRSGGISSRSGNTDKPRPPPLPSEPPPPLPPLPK
Description: as §5, §6

[9] = target: CDK12 (aa686-1082)/Cyclin K (Homo sapiens (Human), UniProt Q9NYV4); assay: as above; assay type: biochemical; conditions: 2 mM ATP; read-out: CDK12 kinase IC50
Sequence of CDK12 (aa686-1082)/Cyclin K (Q9NYV4 686-1082): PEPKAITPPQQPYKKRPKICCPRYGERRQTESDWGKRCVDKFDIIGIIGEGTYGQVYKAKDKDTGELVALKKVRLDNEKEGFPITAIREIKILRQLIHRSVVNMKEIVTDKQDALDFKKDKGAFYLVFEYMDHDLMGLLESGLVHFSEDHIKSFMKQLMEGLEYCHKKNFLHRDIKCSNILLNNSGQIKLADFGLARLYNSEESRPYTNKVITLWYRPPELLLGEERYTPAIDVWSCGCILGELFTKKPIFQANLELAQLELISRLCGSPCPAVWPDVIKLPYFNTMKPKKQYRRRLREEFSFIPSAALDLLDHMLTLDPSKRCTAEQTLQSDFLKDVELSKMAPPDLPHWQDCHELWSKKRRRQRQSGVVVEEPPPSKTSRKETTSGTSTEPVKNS
Sequence of CDK12 (aa686-1082)/Cyclin K (O75909 whole entry partner, the tested form may be a part): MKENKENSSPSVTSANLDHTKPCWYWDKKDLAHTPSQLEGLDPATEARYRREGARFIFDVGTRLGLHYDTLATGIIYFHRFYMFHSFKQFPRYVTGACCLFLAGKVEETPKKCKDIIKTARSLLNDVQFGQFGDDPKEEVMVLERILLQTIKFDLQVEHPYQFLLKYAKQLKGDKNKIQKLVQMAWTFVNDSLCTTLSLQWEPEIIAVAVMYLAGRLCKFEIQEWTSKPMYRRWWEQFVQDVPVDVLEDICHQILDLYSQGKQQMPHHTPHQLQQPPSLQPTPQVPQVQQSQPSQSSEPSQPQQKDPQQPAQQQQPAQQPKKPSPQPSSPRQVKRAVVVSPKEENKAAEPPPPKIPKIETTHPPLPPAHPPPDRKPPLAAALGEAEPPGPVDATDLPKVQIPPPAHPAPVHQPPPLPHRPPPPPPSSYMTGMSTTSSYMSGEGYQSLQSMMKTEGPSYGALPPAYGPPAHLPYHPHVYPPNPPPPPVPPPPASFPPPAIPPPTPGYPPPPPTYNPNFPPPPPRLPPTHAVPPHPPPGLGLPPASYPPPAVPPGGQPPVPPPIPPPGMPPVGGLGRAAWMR
Description: as §5, with “detection. Compound Staurosporine having a structural formula of” for “detection.”
as §6

SMILES | IC50 [4] | IC50 ([6]; Homo sapiens, A2780, 72 h) | IC50 [8] | IC50 (CDK2/Cyclin El) | IC50 (CDK9/Cyclin Tl) | IC50 [9] | also measured
CC1(C)CC[C@H](Nc2ncc(C(F)(F)F)c(-c3c[nH]c4c(P(C)(C)=O)c(C#N)ccc34)n2)CN1 [Compound 101, reference compound] | 246 nM | 8.76 nM | – | – | – | – | IC50 [1]: 1660 nM; IC50 [2]: 112 nM; IC50 [3]: 88.8 nM; IC50 (lung cancer cell Calu-6): 207 nM; IC50 ([5]; Homo sapiens, WiDr, 72 h): 11.2 nM
CC1(C)CC[C@H](Nc2ncc(C(F)(F)F)c(-c3c[nH]c4c(P(C)(C)=O)c(N5CCCCC5=O)ccc34)n2)CN1 [Example 02] | – | – | – | – | – | – | IC50 [7]: < 10 nM
Cc1cc(Nc2ncc(C(F)(F)F)c(-c3c[nH]c4cc(C#N)ccc34)n2)n[nH]1 [Example 12] | – | – | – | – | – | – | IC50 [7]: 10 to 500 nM
CC1(C)CC[C@H](Nc2ncc(C(F)(F)F)c(-c3c[nH]c4c(S(=O)(=O)C5CCCC5)c(C#N)ccc34)n2)CN1 [Example 23] | – | – | – | – | – | – | IC50 [7]: < 10 nM
CC1(C)CC[C@H](Nc2nc(-c3c[nH]c4c(P(C)(C)=O)c(C#N)ccc34)c3ccccc3n2)CN1 [Example 24] | – | – | – | – | – | – | IC50 [7]: 10 to 500 nM
Cc1cc(Nc2ncc(C(F)(F)F)c(-c3c[nH]c4c(P(C)(C)=O)c(C#N)ccc34)n2)n[nH]1 [Example 28] | – | – | – | – | – | – | IC50 [7]: < 10 nM
COC(=O)N[C@H]1CCC[C@@H](Nc2ncc(C(F)(F)F)c(-c3c[nH]c4c(P(C)(C)=O)c(C#N)ccc34)n2)C1 [Example 66] | – | – | – | – | – | – | IC50 [7]: < 10 nM
C=C(C)c1c(NC(=O)OC)ccc2c(-c3nc(N[C@H]4CCCNC4)ncc3C(F)(F)F)c[nH]c12 [Example T-70] | – | – | < 50 nM | > 500 nM | > 500 nM | > 500 nM | IC50 [5]: 45.5 nM; IC50 [6]: 4.47 nM
COC(=O)Nc1ccc2c(-c3nc(N[C@H]4CCC(C)(C)NC4)ncc3C(F)(F)F)c[nH]c2c1OCC(F)(F)F [Example T-91] | 80.2 nM | 8.75 nM | < 50 nM | – | – | – | –
COC(=O)Nc1ccc2c(-c3nc(N[C@H]4CCC5(CC5)NC4)ncc3C(F)(F)F)c[nH]c2c1C1CC1 [Example T-128] | 9.08 nM | 8.68 nM | < 50 nM | > 500 nM | > 500 nM | > 500 nM | –
COC(=O)Nc1ccc2c(-c3nc(N[C@H]4CCC(C)(C)NC4)ncc3C(F)(F)F)c[nH]c2c1OC [Example T-132] | 100 nM | 4.52 nM | < 50 nM | > 500 nM | > 500 nM | > 500 nM | –
COC(=O)Nc1ccc2c(-c3nc(N[C@H]4CCC5(CC5)NC4)ncc3C(F)(F)F)c[nH]c2c1C(C)=O [Example T-135] | 161 nM | 4.61 nM | < 50 nM | > 500 nM | > 500 nM | > 500 nM | –
COC(=O)Nc1ccc2c(-c3nc(N[C@H]4CCC5(CC5)NC4)ncc3C(F)(F)F)c[nH]c2c1Br [Example T-142] | 120 nM | 5.05 nM | < 50 nM | > 500 nM | > 500 nM | > 500 nM | –
COC(=O)Nc1ccc2c(-c3nc(N[C@H]4CCC5(CC5)NC4)ncc3C(F)(F)F)c[nH]c2c1OCC(F)(F)F [Example T-150] | 161 nM | 13.5 nM | < 50 nM | > 500 nM | > 500 nM | > 500 nM | –
COC(=O)Nc1ccc2c(-c3nc(N[C@H]4CCC5(CC5)NC4)ncc3C(F)(F)F)c[nH]c2c1C(F)F [Example T-156] | – | 1.23 nM | < 50 nM | > 500 nM | > 500 nM | > 500 nM | –
COC(=O)N(C)c1ccc2c(-c3nc(N[C@H]4CCCNC4)ncc3C(F)(F)F)c[nH]c2c1C(F)(F)F [Example T-164] | – | – | < 50 nM | > 500 nM | > 500 nM | > 500 nM | –
COC(=O)N(C)c1ccc2c(-c3nc(N[C@H]4CCCNC4)ncc3C(F)(F)F)c[nH]c2c1OC(F)F [Example T-165] | – | – | < 50 nM | > 500 nM | > 500 nM | > 500 nM | –

The next lines start with results.

IC50 [4] | IC50 ([6]; Homo sapiens, A2780, 72 h) | IC50 [8] | IC50 (CDK2/Cyclin El) | IC50 (CDK9/Cyclin Tl) | IC50 [9] | SMILES | also measured
– | 4.76 nM | < 50 nM | > 500 nM | > 500 nM | > 500 nM | COC(=O)Nc1ccc2c(-c3nc(N[C@H]4CCCNC4)ncc3C(F)(F)F)c[nH]c2c1C1CC1 [Example T-17] | IC50 ([5]; Homo sapiens, WiDr, 72 h): 26.8 nM
215 nM | 8.73 nM | < 50 nM | > 500 nM | > 500 nM | > 500 nM | COC(=O)Nc1ccc2c(-c3nc(N[C@H]4CCCNC4)ncc3C(F)(F)F)c[nH]c2c1C(F)(F)F [Example T-34] | IC50 [1]: 573 nM; IC50 [2]: 120 nM
197 nM | – | < 50 nM | > 500 nM | > 500 nM | > 500 nM | COC(=O)Nc1ccc2c(-c3nc(N[C@H]4CCC(C)(C)NC4)ncc3C(F)(F)F)c[nH]c2c1Br [Example T-36] | IC50 [1]: 471 nM; IC50 [2]: 116 nM; IC50 (lung cancer cell Calu-6): 209 nM
55.5 nM | 1.26 nM | < 50 nM | > 500 nM | > 500 nM | > 500 nM | COC(=O)Nc1ccc2c(-c3nc(N[C@H]4CCC5(CC5)NC4)ncc3C(F)(F)F)c[nH]c2c1Cl [Example T-81] | –
127 nM | 5.55 nM | – | – | – | – | COC(=O)Nc1ccc2c(-c3nc(N[C@H]4CCCNC4)ncc3C(F)(F)F)c[nH]c2c1C(C)=O [Example T-98] | –
53.4 nM | 1.54 nM | < 50 nM | – | – | – | COC(=O)Nc1ccc2c(-c3nc(N[C@H]4CCCNC4)ncc3C(F)(F)F)c[nH]c2c1C(C)(F)F [Example T-99] | –
– | 0.54 nM | < 50 nM | – | – | – | COC(=O)Nc1ccc2c(-c3nc(N[C@H]4CCCNC4)ncc3C(F)(F)F)c[nH]c2c1OC(F)(F)F [Example T-122] | –
– | – | < 50 nM | > 500 nM | > 500 nM | > 500 nM | COC(=O)Nc1ccc2c(-c3nc(N[C@H]4CCCN(C)C4)ncc3C(F)(F)F)c[nH]c2c1Cl [Example T-168] | –
– | – | < 50 nM | > 500 nM | > 500 nM | > 500 nM | COC(=O)Nc1ccc2c(-c3nc(N[C@H]4CCCN(C)C4)ncc3C(F)(F)F)c[nH]c2c1C(F)F [Example T-169] | –
